Results as given in PMC11662004 (Communications Chemistry, 2024).
Values joined by “and” are separate entries in the source; they are usually repeats but may differ in a detail not shown here. Equal entries are not always repeated. Where two headings read alike, the source gives them in different places. Positions of bridges follow the written chain, without caps; N, C: chain ends. Non-standard residues stand in square brackets, D forms with d. Residues, ends and D or L forms follow the SMILES beside them.

How the values were obtained:
NgTet1 [1] = biological target: T1, NgTet1 (Naegleria gruberi, UniProt D2W6T1); experiment: biochemical
T1 construct: His6-tagged full-length Naegleria gruberi NgTet1 (321 a. a.) protein with a thrombin cleavage site; made in house; host or cells: E. coli BL21(DE3)
T1 sequence (D2W6T1 1-321): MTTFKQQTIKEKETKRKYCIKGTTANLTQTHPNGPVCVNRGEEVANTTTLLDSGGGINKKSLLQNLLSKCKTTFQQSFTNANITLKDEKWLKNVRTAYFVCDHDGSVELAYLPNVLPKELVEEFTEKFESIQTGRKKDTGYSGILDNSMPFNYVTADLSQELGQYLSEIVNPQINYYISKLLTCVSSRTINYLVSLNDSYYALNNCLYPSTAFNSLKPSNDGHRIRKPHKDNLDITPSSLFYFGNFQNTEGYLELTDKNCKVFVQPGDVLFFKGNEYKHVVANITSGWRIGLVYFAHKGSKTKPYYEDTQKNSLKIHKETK
Method: (Fig. 5a), were screened for inhibitory activity against NgTet1.
(§1) Activity was normalised against reactions containing vehicle (DMSO). […] AS data shown as the mean of three experimental replicates (n = 3; mean ± SD); ^1H NMR data plotted from two independent replicates (n = 2); tabulated data reported as the mean of two and three independent replicates for ^1H NMR and AS, respectively (n = 2–3, SD reported for n = 3). N. d.: not determined; AS: AlphaScreen.
Compounds in DMSO (100 nL) were pre-dispensed in a logarithmically linear concentration gradient onto 384-well ProxiPlates using an Echo® 550 acoustic liquid handler (Labcyte). NgTet1 was pre-incubated with the inhibitor dilution series in DMSO at room temperature for 10 min. Reactions were initiated by the addition of appropriate cofactors and DNA. […] The reactions were quenched by the addition of 30 mM EDTA (pH 4.2), 358 mM NaCl (5 μL) within the enzyme linear activity window (determined in Fig. S10). Concurrently, a mixture containing the anti-^5hmC antibody (1:2000 dilution) and AlphaScreen beads (1:62.5 dilution) in assay buffer was prepared and incubated at room temperature for 30 min. The AlphaScreen bead/antibody mixture was added to the quenched NgTet1 reactions (5 μL), and the complete mixture was incubated at room temperature for 1 h. Chemiluminescence was measured on a PHERAstar FS/FSX (BMG Labtech) equipped with an AlphaScreen 680 570 module. All AlphaScreen bead manipulations were performed under subdued lighting. Inhibition data was normalised to reactions containing vehicle only (1% v/v DMSO) and fitted using “log(inhibitor) vs. response—Variable slope (four parameters)” non-linear regression model on GraphPad Prism 5.

NgTet1 [2] = biological target: T1, NgTet1; experiment: biochemical; settings: for normalised activity: NgTet1, NMR, 2 independent replicates
Method: as §1
All ^1H NMR spectra were recorded at 25 °C using D2O as a reference for internal deuterium lock on a Bruker Avance III 700 MHz equipped with an inverse TCI cryoprobe in 3 or 5 mm diameter tubes with a total sample volume of 160 or 565 μL, respectively. The water signal was reduced using Perfect Echo excitation sculpting suppression. Chemical shifts are reported in ppm relative to D2O (δH = 4.70 ppm).
NgTet1 was pre-incubated with inhibitor dilution series in DMSO-d6 at room temperature for 10 min (50 mM Tris-d11 [pH 7.5], 2% v/v DMSO-d6). Reactions were initiated by the addition of appropriate cofactors and DNA. […] The reactions were quenched by the addition of 9 mM NOG and 9 mM ZnCl2 in 90 mM Tris-d11 [pH 7.5] (20 μL) within the enzyme linear activity window (determined in Figure. S10). Samples were transferred to NMR tubes and subjected to ^1H NMR analysis. Data were processed as described above. Inhibition data was normalised to reactions containing vehicle only (1% v/v DMSO-d6) and fitted using “log(inhibitor) vs. response - Variable slope (four parameters)” non-linear regression model on GraphPad Prism 5.
Activity was normalised against reactions containing vehicle only (100% activity). Data is shown as the mean of 2 independent replicates (n = 2; […]
Fig. S10 Determination of linear NgTet1 enzymatic activity windows for inhibitor characterisation. a 1H NMR succinate detection time courses with no DNA, 5HC DNA (double- […]
complementary 5'-ACC AC5mC GGT GGT-3'). b AlphaScreen 5hmC detection time course using […]
courses shown. 1H NMR reaction conditions: 5 μM NgTet1, 2 mM sodium L-ascorbate, 100 μM […]
v/v D2O. DNA was added to a final concentration of 20 μM of double-stranded DNA. […]

Compound: CC[C@H](C)[C@@H]1NC(=O)[C@H](CC(C)C)NC(=O)[C@@H](Cc2ccc(O)cc2)NC(=O)CSC[C@@H](C(N)=O)NC(=O)[C@H](CO)NC(=O)[C@H](Cc2c[nH]cn2)NC(=O)[C@H](CCC(=O)O)NC(=O)[C@H](Cc2c[nH]c3ccccc23)NC(=O)[C@H](Cc2c[nH]c3ccccc23)NC(=O)[C@H]([C@@H](C)O)NC(=O)[C@H](Cc2ccc(O)cc2)NC(=O)[C@H](Cc2ccc(O)cc2)NC(=O)[C@H](C)NC(=O)[C@H](Cc2ccc(O)cc2)NC1=O [TiP1] ({CH2CO}-[dY]LIYAYYTWWEHSC-NH2; thioether N-14)
- IC50 (NgTet1 [1]): 26.3 µM
- normalised activity, % (NgTet1 [1]; AlphaScreen, -Log[inhibitor] (M) 8.73132): 115.665% and 99.133% and 91.2094% and 100% and 99.1774% and 99.7728% and 97.6796%
- uncoupled 2OG decarboxylase activity relative to control (NgTet1 [2]; 1.2 equivalents (6.17 μM) of ligand, no 5mC DNA substrate): 137%
- normalised activity, % (NgTet1 [2]; 5mC DNA, NMR, -Log[inhibitor] (M) 3.30103): 0.3831% and 0.8644%
- normalised activity, % (NgTet1 [2]; 5mC DNA, NMR, -Log[inhibitor] (M) 3.77815): 0%
- normalised activity, % (NgTet1 [2]; 5mC DNA, NMR, -Log[inhibitor] (M) 4.25527): 7.31% and 14.7287%
- normalised activity, % (NgTet1 [2]; 5mC DNA, NMR, -Log[inhibitor] (M) 4.73239): 78.5121% and 83.5696%
- normalised activity, % (NgTet1 [2]; 5mC DNA, NMR, -Log[inhibitor] (M) 5.20951): 98.5224% and 104.299%
- normalised activity, % (NgTet1 [2]; 5mC DNA, NMR, -Log[inhibitor] (M) 5.68664): 102.213% and 96.5096%
- normalised activity, % (NgTet1 [2]; 5mC DNA, NMR, -Log[inhibitor] (M) 6.16376): 101.348% and 99.8653%
- normalised activity, % (NgTet1 [2]; 5mC DNA, NMR, -Log[inhibitor] (M) 6.64088): 101.5% and 99.6319%
- normalised activity, % (NgTet1 [2]; 5mC DNA, NMR, -Log[inhibitor] (M) 7.118): 99.9781% and 101.169%
- normalised activity, % (NgTet1 [2]; 5mC DNA, NMR, -Log[inhibitor] (M) 7.59512): 101.989% and 101.514%
- normalised activity (NgTet1 [2]; -Log[inhibitor] (M) 3.30103): 1.539% and 0.6062%
- normalised activity (NgTet1 [2]; -Log[inhibitor] (M) 3.77815): 5.644% and 0.04671%
- normalised activity (NgTet1 [2]; -Log[inhibitor] (M) 4.25527): 23.0301% and 11.8368%
- normalised activity (NgTet1 [2]; -Log[inhibitor] (M) 4.73239): 129.261% and 95.1469%
- normalised activity (NgTet1 [2]; -Log[inhibitor] (M) 5.20951): 124.894% and 132.33%
- normalised activity (NgTet1 [2]; -Log[inhibitor] (M) 5.68664): 97.9138% and 111.807%
- normalised activity (NgTet1 [2]; -Log[inhibitor] (M) 6.16376): 101.603% and 106.324%
- normalised activity (NgTet1 [2]; -Log[inhibitor] (M) 6.64088): 102.045% and 105.397%
- normalised activity (NgTet1 [2]; -Log[inhibitor] (M) 7.118): 107.511% and 102.971%
- normalised activity (NgTet1 [2]; -Log[inhibitor] (M) 7.59512): 96.6941%
- IC50 (NgTet1 [2]; IC50, 5mC DNA, NMR, 2OG decarboxylation with 20 µM 5mC DNA, 5 μM NgTet1, 50 μM 2OG): 28.8 µM
- IC50 (NgTet1 [2]; IC50, No DNA, NMR, uncoupled 2OG decarboxylation, no DNA, 5 μM NgTet1, 50 μM 2OG): 26.3 µM
- IC50 (NgTet1 [2]; IC50 across all assays, AS and 1H NMR assays): 26 to 29 µM
- normalised activity, % (NgTet1 [2]; No DNA, NMR, -Log[inhibitor] (M) 3.30103): 1.539% and 0.6062%
- normalised activity, % (NgTet1 [2]; No DNA, NMR, -Log[inhibitor] (M) 3.77815): 5.644% and 0.04671%
- normalised activity, % (NgTet1 [2]; No DNA, NMR, -Log[inhibitor] (M) 4.25527): 23.0301% and 11.8368%
- normalised activity, % (NgTet1 [2]; No DNA, NMR, -Log[inhibitor] (M) 4.73239): 129.261% and 95.1469%
- normalised activity, % (NgTet1 [2]; No DNA, NMR, -Log[inhibitor] (M) 5.20951): 124.894% and 132.33%
- normalised activity, % (NgTet1 [2]; No DNA, NMR, -Log[inhibitor] (M) 5.68664): 97.9138% and 111.807%
- normalised activity, % (NgTet1 [2]; No DNA, NMR, -Log[inhibitor] (M) 6.16376): 101.603% and 106.324%
- normalised activity, % (NgTet1 [2]; No DNA, NMR, -Log[inhibitor] (M) 6.64088): 102.045% and 105.397%
- normalised activity, % (NgTet1 [2]; No DNA, NMR, -Log[inhibitor] (M) 7.118): 107.511% and 102.971%
- normalised activity, % (NgTet1 [2]; No DNA, NMR, -Log[inhibitor] (M) 7.59512): 96.6941%
- normalised activity, % (NgTet1 [2]; TiP1 statistical test, NMR, no DNA, NgTet1/TiP1 ratio 1:1.2, technical replicates): 140.602% and 133.857% and 142.6% and 131.935%
- normalised activity, % (NgTet1 [2]; TiP1 statistical test, NMR, no DNA, NgTet1/TiP1 ratio 1:3.7, technical replicates): 103.459% and 107.449% and 116.09% and 117.125%
